From US10822299B2, “Compounds and methods for hematopoietic regeneration” (The Regents of the University of California, priority 2016, dated 2020)

What was measured:
Rac1 [1] = assay: Rac1 activation assay (G-LISA); type: cell-based; details: cells incubated 2 minutes at 1 and 10 μg/mL
Experimental: Cell cultures were incubated with each tested compound for 2 minutes at concentrations of 1 and 10 μg/mL, after which the cells were tested for Rac1 activation using a G-LISA activation assay. The cells were lysed and the lysates introduced into wells containing Rac-GTP-binding protein, then sequentially incubated with anti-Rac1 antibody and a horseradish peroxidase-linked secondary antibody. The amount of horseradish peroxidase was then quantitated to evaluate the Rac1 activation potency of each compound studied.

irradiated mice = assay: Survival and HSC regeneration of irradiated mice; type: in vivo; details: for Survival of irradiated mice: irradiated mice (DJ001: 750 cGy, lethal dose)
From the text: (§1) A) CFU-GEMMs produced by TSF media vs. TSF+GJ001 (p=0.001). B) Percentage of BM KSL cells expressing Rac1 GTP (p=0.008). C) Survival of mice irradiated with 750 cGy followed by treatment with DJ001 or vehicle (p=0.0007). D) % BM KSL cells (blue) and % ckit^+sca-1^−lin^− progenitors (gray) at day+21 in irradiated mice.

[2] = test system: hematopoietic colony formation; assay: Hematopoietic colony formation; type: cell-based
[3] = target: T1, PTPRS catalytic domains (D1D2) (Homo sapiens, UniProt Q13332); assay: In vitro phosphatase assay (modified Malachite Green Assay); type: biochemical; details: for IC50: 50 nM PTPRS, 100 uM Tyr Phosphopeptide, 15 min preincubation
T1 construct: The two interacellular catalytic domains (D1D2) of PTPRS were cloned into a pET28a vector; made in house; host or cells: E. coli BL21
T1 sequence (Q13332 1304-1948 limits assumed): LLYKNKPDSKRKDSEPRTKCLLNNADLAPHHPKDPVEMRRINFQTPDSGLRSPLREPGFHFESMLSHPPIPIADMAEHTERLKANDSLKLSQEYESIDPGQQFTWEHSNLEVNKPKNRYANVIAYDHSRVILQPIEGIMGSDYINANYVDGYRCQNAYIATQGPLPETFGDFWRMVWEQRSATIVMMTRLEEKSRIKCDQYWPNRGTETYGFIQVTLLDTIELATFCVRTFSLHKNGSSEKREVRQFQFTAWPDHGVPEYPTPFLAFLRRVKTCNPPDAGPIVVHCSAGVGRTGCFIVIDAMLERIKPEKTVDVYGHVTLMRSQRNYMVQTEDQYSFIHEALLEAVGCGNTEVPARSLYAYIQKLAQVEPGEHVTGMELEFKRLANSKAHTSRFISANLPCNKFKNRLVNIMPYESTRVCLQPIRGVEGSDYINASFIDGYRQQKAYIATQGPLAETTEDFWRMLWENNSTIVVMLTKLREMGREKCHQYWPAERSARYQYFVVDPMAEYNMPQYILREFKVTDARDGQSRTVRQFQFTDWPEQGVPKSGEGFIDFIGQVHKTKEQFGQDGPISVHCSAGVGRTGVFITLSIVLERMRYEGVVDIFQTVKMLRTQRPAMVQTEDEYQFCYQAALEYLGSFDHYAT
Experimental: The two interacellular catalytic domains (D1D2) of PTPRS were cloned into a pET28a vector and overexpressed in E. coli BL21 and purified as described in Jeon T J, et al. Structure of the Catalytic Domain of Protein Tyrosine Phosphatase Sigma in the Sulfenic Acid Form. Molecules and Cells. 2013; 36(1):55-61. doi:10.1007/s10059-013-0033-x. Enzymatic activity of PTPRS was assayed using a modified version of the Malachite Green Assay (described in Lorenz U. Protein Tyrosine Phosphatase Assays. Current protocols in immunology/edited by John E Coligan. [et al]. 2011; CHAPTER:Unit-11.7. doi:10.1002/0471142735.im1107s93) and the Tyrosine Phosphatase Assay Kit (Promega Coorperation). Unless stated otherwise, standard assays were carried out using 50 nM PTPRS protein in 1× Buffer (10 mM Tris, 5 mM MgCl2, 10 mM NaCl, 0.02% Tween) and Tyr Phosphopeptide as substrate (100 uM for FIG. 1 and 50-1200 uM in FIG. 2). Catalytic domains D1D2 were preincubated with the test compound or control for 15 min in the wells of a 96 well plate before the addition of 100 uM Tyr Phosphopeptide (DADA(pY)LIPQQG).
For IC50 determination, rates normalized relative to uninhibited controls (DMSO) were plotted against compound concentration and fitted using a four-parameter nonlinear regression curve fit ((y=[(A−D) (1+{xC−1}B)−1]+D), (Prism 6.0, Graphpad Software). For mechanism studies and determination of the enyzme's Km and Vmax, data were analyzed using a nonlinear regression fit according to classical Mechaelis-Menten kinetics model Y=Vmax*X/(Km+X) (Prism 6.0, Graphpad Software).

Rac1 [4] = assay: Rac1 signaling in HSCs (BM KSL cells expressing Rac1 GTP, FIG. 1); type: cell-based
From the text: as §1

Row | SMILES | Rac1 Activation (Rac1 [1]) | IC50 [3] [nM] | further results
1 | CC(C)(C)[Si](C)(C)Oc1cccc(N/C=C\C(=O)c2ccccc2)c1 [DJ014] | yes | – | –
2 | COc1cccc(N/C=C\C(=O)c2ccccc2)c1 [DJ005] | no | – | –
3 | O=C(/C=C\Nc1cccc(C(F)(F)F)c1)c1ccccc1 [DJ003] | yes | 1060 | Survival of irradiated mice (irradiated mice): improves survival of irradiated mice; Hematopoietic colony formation [2]: increases hematopoietic colony formation
4 | O=C(/C=C\Nc1cccc(O)c1)c1ccccc1 [DJ015] | yes | 1390 | –
5 | CN(C)c1cccc(N/C=C\C(=O)c2ccccc2)c1 [DJ008] | no | – | –
6 | O=C(/C=C\Nc1cccc(-c2ccccc2)c1)c1ccccc1 [DJ007] | no | – | –
7 | O=C(/C=C\Nc1ccccc1)c1ccccc1 [DJ013] | yes | – | –
8 | CC(=O)c1cccc(N/C=C\C(=O)c2ccccc2)c1 [DJ006] | no | 3030 | –
9 | CC(C)(C)N/C=C\C(=O)c1ccccc1 [DJ019] | no | – | –
10 | CCCCN/C=C\C(=O)c1ccccc1 [DJ017] | no | – | –
11 | COc1cc(N/C=C\C(=O)c2ccccc2)cc(OC)c1 [DJ012] | yes | – | –
12 | O=C(/C=C\Nc1cc(F)cc(F)c1)c1ccccc1 [DJ009] | yes | 1370 | –
13 | Cc1cccc(N/C=C\C(=O)c2ccccc2)c1 [DJ004] | yes | – | –
14 | O=C(c1ccccc1)c1ccccc1Nc1cccc([N+](=O)[O-])c1 [DJ027] | – | 910 | –
15 | O=C(/C=C\Nc1cccc(F)c1)c1ccccc1 [DJ002] | no | – | –
16 | O=C(/C=C\NCc1ccco1)c1ccccc1 [DJ018] | no | – | –
17 | Cc1cccc(C(=O)/C=C\Nc2cccc(C(F)(F)F)c2)c1 [DJ033] | – | 950 | –
18 | Cc1cc(C)cc(N/C=C\C(=O)c2ccccc2)c1 [DJ011] | yes | – | –
19 | O=C(/C=C\Nc1cc(C(F)(F)F)cc(C(F)(F)F)c1)c1ccccc1 [DJ030] | – | 1830 | –
20 | CN(C)S(=O)(=O)c1cccc(N/C=C\C(=O)c2ccccc2)c1 [DJ016] | no | – | –
21 | O=C(/C=C\Nc1cccc([N+](=O)[O-])c1)c1ccccc1 [DJ001] | yes | 1430 | HSC regeneration in irradiated mice (irradiated mice; irradiated mice): accelerates HSC regeneration in irradiated mice; Survival of irradiated mice (irradiated mice): dramatically increases mice survival following lethal dose irradiation; Mechanism of inhibition (substrate titration of PTPσ, Vmax and Km) ([3]; substrate titration, Michaelis-Menten fit): classical noncompetitive inhibitor; Rac1 signaling in HSCs (Rac1 [4]): activates Rac1 signaling in HSCs
